Data as given in patent US20130324413A1, “METHOD FOR PROMOTING PLANT GROWTH” (SUMITOMO CHEMICAL COMPANY, LIMITED, priority 2011, published 2013).

Columns and labels:
Assay type in all cases: in vivo
[1] = test system: corn plants (cultivar: Koshu); test: Test Example 3: corn seed soaking, fresh weight of above-ground part
Description: Each of the 1,000-fold concentrated dimethylsulfoxide (DMSO) solutions of compound (1b) was 1,000-fold diluted with water to prepare a soultion of compound (1b) at the test concentration. The solution was dispensed in 30 ml aliquots into […] Petri dishes, in which seeds of corn plants (cultivar: Koshu) were soaked and incubated for 16 hours at 24° C. in the dark. The corn seeds (cultivar: Koshu) were sown in the culture soil (AISAI) in the plastic pots (55 mm in diameter×58 mm in height), and corn seedlings were grown for 18 days under the following, conditions: temperature, 27° C.; illuminance, about 5,000 lux; day length, 16 hours. As a control, a 0.1% aqueous DMSO solution was prepared, and seeds were soaked in this solution and then sown and grown into seedlings in the same way as described above. This group was used as the non-treated group. The fresh weight of the above-ground part of the corn seedlings obtained above was measured. The experiment was performed in four replications for each individual plant at each treatment concentration and the average weight per individual was calculated.

[2] = test system: Corn (cultivar: PIONEER 120 31P41); test: Test Example 13: corn soil irrigation, low-temperature stress, growth and chlorophyll; conditions: soil irrigation 20 ml, low-temperature stress 2 to 4° C. 5 days
Description: Corn seeds (cultivar: PIONEER 120 31P41) are sown in the culture soil (AISAI) in plastic pots (55 mm in diameter×58 mm in height) and grown for 7 days under the following conditions: temperature, 20 to 25° C.; humidity, 50 to 75%; illuminance, about 5,000 lux; day length, 16 hours. A DMSO solution of compound (1b) at a 1,000-fold concentration relative to each test concentration is diluted with distilled water to prepare a test soultion. Twenty (20) ml of the test solution obtained is applied around the base of each plant by soil irrigation, and then the plants are grown for two days under the following conditions: temperature, 27° C., humidity, 50 to 75%; illuminance, about 5,000 lux; day length 16 hours. This group is the present compound-treated group. The group to which 20 ml of a 0.1% aqueous DMSO solution is applied by soil irrigation in place of the DMSO solution of compound (1b) is used as the non-treated group. The plants subjected to the soil irrigation are grown for 5 days under the following conditions, to expose the plants to low-temperature stress: temperature, 2 to 4° C.; humidity, 40 to 70%, illuminance, about 5,000 lux; day length, 16 hours in a phytotron. After the exposure to low-temperature stress, the plants are grown for 4 days under the conditions of a temperature off20 to 25° C., a humidity of 50 to 75%, an illuminance of about 5,000 lux, and a day length of 16 hours. Then the plant weight and the length of true leaves are measured. Also, after the exposure to low-temperature stress, the plants are grown for 1 day under the conditions of a temperature of 20 to 25° C., a humidity of 50 to 75%, an illuminance of about 5,000 lux, and a day length of 16 hours. Then the chlorophyll fluorescence (Fv/Fm) is measured using a pulse modulation chlorophyll fluorometer (MAXI-IMAGING-PAM, WALZ). The chlorophyll content is measured using a chlorophyll gauge (SPAD-502; manufactured by KONICA MINOLTA).

[3] = test system: Arabidopsis thaliana (ecotype Columbia); test: Test Example 7: Arabidopsis seedlings in medium, high-temperature stress, leaf area; conditions: 30 ppm in medium; high-temperature stress 45° C. 60 minutes; 8 days after; non-treated 3.4 mm^2
Description: In a Petri dish, a hydroponic sponge piece (1 cm×1 cm×0.2 cm) was immersed with a half concentration of Murashige-and-Skoog medium (MS culture medium: containing 2.5 mM MES, 1% sucrose and 0.1% Gamborg vitamin solution G1019 (Sigma-Aldrich)). On this sponge piece, 4 to 5 seeds of Arabidopsis thaliana (ecotype Columbia) were aseptically sown. After the low temperature treatment (at 4° C. for 2 to 4 days), the plants were grown for 6 days under the following conditions to obtain Arabidopsis seedlings: temperature, 23° C.; humidity, 45%; illuminance, 3,500 lux; day length, 16 hours. Each 0.5 ml of a half concentration of MS medium was dispensed into a 24-well plate (SUMILON MS-80240; manufactured by Sumitomo Bakelite), onto which […] of a 1,000-fold concentrated DMSO solution of compound (1b) was added to prepare medium containing compound (1b) at a concentration of 30 ppm. After thinning the Arabidopsis seedlings to 2 plants per sponge, the seedlings were transplanted in the compound (1b)-containing medium in each well of the 24-well plate, together with the sponge piece and then grown overnight. […] Each well was photographed with a digital camera and the green area in the photograph was measured using image analysis software Win ROOF (manufactured by MITANI CORPORATION), thereby quantifying the leaf areas of the plants.

SMILES: CNC(=O)C(OC)c1ccccc1COc1cc(C)ccc1C (racemic) [Compound (1b), N-methyl-2-[2-(2,5-dimethylphenoxy)methyl]phenyl-2-methoxyacetamide]
- fresh weight of the above-ground part as compared with the non-treated group ([1]; concentration of 3 ppm): increased
- Average fresh weight of above-ground part ([1]; seed soaking 3 ppm, 16 hours, grown 18 days, non-treated 4.47 g): 6.60 g
- chlorophyll fluorescence (Fv/Fm) as compared with the non-treated group ([2]; then 1 day growth): increases
- length of true leaves as compared with the non-treated group ([2]; then 4 days growth): increased
- plant weight as compared with the non-treated group ([2]; then 4 days growth): increased
- chlorophyll content as compared with the non-treated group ([2]; chlorophyll gauge SPAD-502): increases
- Mean leaf area of plants [3]: 12.6 mm^2
